According to patent publication US6753348B2, “BTK inhibitors and methods for their identification and use” (Parker Hughes Institute, priority 1998, dated 2004):
pIC50: −log10 of the molar value.

Experiments:
BTK in B18.2 cells = BTK in B18.2 cells (Homo sapiens, UniProt Q06187); test: Cellular BTK activity, immune complex kinase assay after treatment of cells; format: cell-based; conditions: treatment of B18.2 cells
Description: PIU: Phosphoimager units; DSU, densitometric scanning units; CON, control.
Polyclonal antibodies to BTK were generated by immunization of rabbits with glutathione S-transferase (GST) fusion proteins (Pharmacia Biotech Inc.) containing the first 150 amino acids of BTK. The monoclonal anti-Fas antibody (F22120) was obtained from the Transduction Laboratories, Inc. (Lexington, Ky.). […] Following electrophoresis, kinase gels were dried onto Whatman 3M filter paper and subjected to phosphoimaging on a Molecular Imager (Bio-Rad, Hercules, Calif.) as well as autoradiography on film. Similarly, all chemiluminescent BTK Western blots were subjected to three dimesional densitometric scanning using the Molecular Imager and Imaging Densitometer using the Molecular Analyst/Macontosh version 2.1 software following the specifications of the manufacturer (Bio-Rad). For each drug concentration, a BTK kinase activity index was determined by comparing the ratios of the kinase activity in phosphorimager units (PIU) and density of the protein bands in densitometric scanning units (DSU) to those of the baseline sample and using the formula: Activity Index=[PIU of kinase band/DSU of BTK protein band]test sample: [PIU of kinase band/DSU of BTK protein band]baseline control sample. […]

JAK3 = target: T1, JAK3 (Homo sapiens, UniProt P52333); test: Cell-free tyrosine kinase inhibition assay JAK3; format: biochemical
T1 sequence (P52333 1-1124): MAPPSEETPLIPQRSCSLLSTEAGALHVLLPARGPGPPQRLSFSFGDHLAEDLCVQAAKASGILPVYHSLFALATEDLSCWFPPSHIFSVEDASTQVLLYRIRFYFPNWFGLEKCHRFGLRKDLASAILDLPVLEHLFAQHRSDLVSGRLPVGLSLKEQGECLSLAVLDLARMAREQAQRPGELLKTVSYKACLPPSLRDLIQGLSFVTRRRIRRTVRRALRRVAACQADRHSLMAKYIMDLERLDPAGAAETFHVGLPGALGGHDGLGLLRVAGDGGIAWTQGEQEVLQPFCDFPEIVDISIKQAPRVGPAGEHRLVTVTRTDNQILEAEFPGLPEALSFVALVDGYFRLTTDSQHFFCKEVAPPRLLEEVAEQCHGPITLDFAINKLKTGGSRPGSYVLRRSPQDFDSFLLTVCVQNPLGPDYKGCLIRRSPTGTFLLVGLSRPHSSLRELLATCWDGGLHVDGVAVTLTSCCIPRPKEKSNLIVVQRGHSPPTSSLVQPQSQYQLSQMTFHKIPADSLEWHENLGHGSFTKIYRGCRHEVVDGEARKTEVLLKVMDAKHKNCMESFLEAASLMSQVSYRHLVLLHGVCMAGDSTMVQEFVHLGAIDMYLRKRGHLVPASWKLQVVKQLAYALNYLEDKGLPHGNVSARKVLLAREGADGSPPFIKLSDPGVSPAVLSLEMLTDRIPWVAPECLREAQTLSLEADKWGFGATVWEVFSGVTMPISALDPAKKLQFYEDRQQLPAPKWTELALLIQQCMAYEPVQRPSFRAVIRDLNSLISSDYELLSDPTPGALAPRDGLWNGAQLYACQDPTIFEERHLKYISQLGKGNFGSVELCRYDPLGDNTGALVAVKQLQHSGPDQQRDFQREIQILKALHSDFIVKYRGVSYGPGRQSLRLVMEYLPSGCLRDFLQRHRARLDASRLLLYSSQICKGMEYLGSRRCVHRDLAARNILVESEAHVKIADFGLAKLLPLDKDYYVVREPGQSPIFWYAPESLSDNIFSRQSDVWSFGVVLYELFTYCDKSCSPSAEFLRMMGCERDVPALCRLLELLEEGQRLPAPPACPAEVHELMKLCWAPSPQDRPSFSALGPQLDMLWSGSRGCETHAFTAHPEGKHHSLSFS

Sequence of BTK in B18.2 cells (Q06187 whole entry): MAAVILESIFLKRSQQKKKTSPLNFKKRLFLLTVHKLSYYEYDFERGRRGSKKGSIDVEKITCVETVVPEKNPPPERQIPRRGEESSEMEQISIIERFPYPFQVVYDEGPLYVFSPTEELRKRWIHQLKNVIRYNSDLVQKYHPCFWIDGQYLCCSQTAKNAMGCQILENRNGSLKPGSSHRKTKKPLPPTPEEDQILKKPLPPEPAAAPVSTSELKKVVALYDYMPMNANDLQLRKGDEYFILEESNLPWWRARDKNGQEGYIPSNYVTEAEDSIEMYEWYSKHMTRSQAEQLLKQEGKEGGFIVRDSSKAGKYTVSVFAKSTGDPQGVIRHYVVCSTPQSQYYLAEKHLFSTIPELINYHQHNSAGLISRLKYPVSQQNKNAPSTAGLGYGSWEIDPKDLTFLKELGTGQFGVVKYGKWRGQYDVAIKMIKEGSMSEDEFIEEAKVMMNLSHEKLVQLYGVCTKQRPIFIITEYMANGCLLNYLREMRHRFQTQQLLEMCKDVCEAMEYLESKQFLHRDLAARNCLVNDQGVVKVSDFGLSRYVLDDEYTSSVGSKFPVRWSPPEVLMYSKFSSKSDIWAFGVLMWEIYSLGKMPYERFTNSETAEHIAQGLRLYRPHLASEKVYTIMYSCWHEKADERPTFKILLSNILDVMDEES

C/C(O)=C(\C#N)C(=O)Nc1cc(Br)ccc1Br [LFM-A13, α-Cyano-β-hydroxy-β-methyl-N-(2,5-dibromophenyl)-propenamide]
cellular BTK activity (BTK in B18.2 cells): dose-dependent inhibition of cellular BTK activity
pIC50 (JAK3): < 3.56
effect on enzymatic activity of JAK3 (JAK3; concentrations as high as 100 μg/ml (~278 μM)): did not affect the enzymatic activity
